Assay results taken from ChEMBL document CHEMBL5120822, “Inhibition of the P2X7/NLRP3 Inflammasome Signaling Pathway by Deacetylgedunin from Toona sinensis” (J Nat Prod, 2022).
Calls of active or inactive are those of the source. No cut-off for these calls is given here.

Experiments:
[1] = target: NACHT, LRR and PYD domains-containing protein 3 (Homo sapiens) (UniProt Q96P20); assay: (§1) Inhibition of NLRP3 inflammasome activation in PMA-differentiated and LPS/ATP-stimulated human THP-1 cells assessed as decrease in caspase-1 expression at 5 to 20 uM incubated for 1 hrs followed by LPS stimulation for 12 hrs and ATP addition for 0.5 hrs by western blot analysis; format: cell-based; settings: dose 5-20 µM, time 13.5 hrs
Chain of NACHT, LRR and PYD domains-containing protein 3 (Homo sapiens) (Q96P20 whole entry, the tested form may be a part): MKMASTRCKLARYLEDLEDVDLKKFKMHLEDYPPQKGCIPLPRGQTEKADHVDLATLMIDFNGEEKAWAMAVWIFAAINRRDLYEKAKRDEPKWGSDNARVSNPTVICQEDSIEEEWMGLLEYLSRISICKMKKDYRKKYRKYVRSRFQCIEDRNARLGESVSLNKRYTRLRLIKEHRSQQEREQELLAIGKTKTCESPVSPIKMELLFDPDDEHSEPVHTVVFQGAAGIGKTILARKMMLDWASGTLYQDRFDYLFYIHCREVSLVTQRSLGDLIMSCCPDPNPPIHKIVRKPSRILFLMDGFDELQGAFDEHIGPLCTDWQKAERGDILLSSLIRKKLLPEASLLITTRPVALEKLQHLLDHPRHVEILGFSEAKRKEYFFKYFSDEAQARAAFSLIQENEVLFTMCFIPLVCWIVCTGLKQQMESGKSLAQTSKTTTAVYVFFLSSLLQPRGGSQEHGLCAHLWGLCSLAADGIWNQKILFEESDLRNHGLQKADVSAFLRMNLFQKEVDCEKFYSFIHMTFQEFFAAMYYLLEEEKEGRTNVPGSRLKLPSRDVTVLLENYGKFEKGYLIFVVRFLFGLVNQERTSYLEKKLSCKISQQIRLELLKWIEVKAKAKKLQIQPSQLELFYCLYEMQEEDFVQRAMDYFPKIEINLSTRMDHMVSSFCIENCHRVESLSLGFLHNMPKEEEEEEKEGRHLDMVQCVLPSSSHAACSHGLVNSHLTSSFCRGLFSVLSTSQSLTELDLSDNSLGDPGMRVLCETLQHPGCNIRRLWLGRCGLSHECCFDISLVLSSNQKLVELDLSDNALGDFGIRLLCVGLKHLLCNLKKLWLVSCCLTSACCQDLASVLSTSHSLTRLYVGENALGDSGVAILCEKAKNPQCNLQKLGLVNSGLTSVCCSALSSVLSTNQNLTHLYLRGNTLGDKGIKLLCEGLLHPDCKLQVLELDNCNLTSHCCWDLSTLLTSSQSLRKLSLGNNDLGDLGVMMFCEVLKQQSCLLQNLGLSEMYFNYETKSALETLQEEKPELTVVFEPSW

[2] = target: NACHT, LRR and PYD domains-containing protein 3 (Homo sapiens) (UniProt Q96P20); assay: Inhibition of NLRP3 inflammasome activation in PMA-differentiated and LPS/MSU-stimulated human THP-1 cells assessed as inhibition of IL-1beta secretion at 20 uM incubated for 1 hrs followed by LPS stimulation for 12 hrs and MSU addition for 6 hrs by ELISA; format: cell-based; settings: time 19.0 hrs
[3] = tested on: THP-1; assay: Antiinflammatory activity against PMA-differentiated and LPS/ATP stimulated human THP-1 cells assessed as increase in cell viability at 5 to 20 uM incubated for 1 hrs followed by LPS stimulation for 12 hrs and ATP addition for 0.5 hrs by CCK8 assay; format: functional, cell-based; settings: dose 5-20 µM, time 13.5 hrs
[4] = target: NACHT, LRR and PYD domains-containing protein 3 (Homo sapiens) (UniProt Q96P20); assay: as §1, with “assessed as increase” for “decrease”, “potassium ion concentration” for “caspase-1 expression”, “EPG-2 AM staining based flow cytometry” for “western blot analysis”; format: cell-based; settings: dose 5-20 µM, time 13.5 hrs
[5] = target: NACHT, LRR and PYD domains-containing protein 3 (Homo sapiens) (UniProt Q96P20); assay: Inhibition of NLRP3 inflammasome activation in PMA-differentiated and LPS/ATP-stimulated human THP-1 cells assessed as decrease in pro-IL-1beta expression at 5 to 20 uM incubated for 1 hrs followed by LPS stimulation for 12 hrs and ATP addition for 0.5 hrs by western blot analysis; format: cell-based; settings: dose 5-20 µM, time 13.5 hrs
[6] = target: NACHT, LRR and PYD domains-containing protein 3 (Homo sapiens) (UniProt Q96P20); assay: Inhibition of NLRP3 inflammasome activation in PMA-differentiated and LPS/NIG-stimulated human THP-1 cells assessed as decrease of ASC oligomerization at 20 uM incubated for 1 hrs followed by LPS stimulation for 12 hrs and NIG addition for 2 hrs by DAPI staining based immunofluorescence analysis; format: cell-based; settings: time 15.0 hrs
[7] = target: NACHT, LRR and PYD domains-containing protein 3 (Homo sapiens) (UniProt Q96P20); assay: Inhibition of NLRP3 inflammasome activation in PMA-differentiated and LPS/NIG-stimulated human THP-1 cells assessed as decrease in pro-IL-1beta expression at 20 uM incubated for 1 hrs followed by LPS stimulation for 12 hrs and NIG addition for 2 hrs by western blot analysis; format: cell-based; settings: time 15.0 hrs
[8] = tested on: THP-1; assay: Antiinflammatory activity against PMA-differentiated and LPS/MSU stimulated human THP-1 cells assessed as increase in cell viability at 5 to 20 uM incubated for 1 hrs followed by LPS stimulation for 12 hrs and MSU addition for 6 hrs by CCK8 assay; format: functional, cell-based; settings: dose 5-20 µM, time 19.0 hrs
[9] = target: NACHT, LRR and PYD domains-containing protein 3 (Homo sapiens) (UniProt Q96P20); assay: Inhibition of NLRP3 inflammasome activation in PMA-differentiated and LPS/MSU-stimulated human THP-1 cells assessed as decrease in pro-IL-1beta expression at 20 uM incubated for 1 hrs followed by LPS stimulation for 12 hrs and MSU addition for 6 hrs by western blot analysis; format: cell-based; settings: time 19.0 hrs
[10] = target: NACHT, LRR and PYD domains-containing protein 3 (Homo sapiens) (UniProt Q96P20); assay: Inhibition of NLRP3 inflammasome activation in PMA-differentiated and LPS/NIG-stimulated human THP-1 cells assessed as decrease in IL-1beta expression at 20 uM incubated for 1 hrs followed by LPS stimulation for 12 hrs and NIG addition for 2 hrs by western blot analysis; format: cell-based; settings: time 15.0 hrs
[11] = tested on: THP-1; assay: Antiinflammatory activity against PMA-differentiated and LPS/NIG stimulated human THP-1 cells assessed as increase in cell viability at 5 to 20 uM incubated for 1 hrs followed by LPS stimulation for 12 hrs and NIG addition for 2 hrs by CCK8 assay; format: functional, cell-based; settings: dose 5-20 µM, time 15.0 hrs
[12] = target: NACHT, LRR and PYD domains-containing protein 3 (Homo sapiens) (UniProt Q96P20); assay: Inhibition of NLRP3 inflammasome activation in PMA-differentiated and LPS/ATP-stimulated human THP-1 cells assessed as suppression of P2X7 expression at 5 to 20 uM incubated for 1 hrs followed by LPS stimulation for 12 hrs and ATP addition for 0.5 hrs by Western blot analysis; format: cell-based; settings: dose 5-20 µM, time 13.5 hrs, DDE = dose-dependent effect
[13] = target: NACHT, LRR and PYD domains-containing protein 3 (Homo sapiens) (UniProt Q96P20); assay: Inhibition of NLRP3 inflammasome activation in PMA-differentiated and LPS/ATP-stimulated human THP-1 cells assessed as decrease in IL-1beta expression at 5 to 20 uM incubated for 1 hrs followed by LPS stimulation for 12 hrs and ATP addition for 0.5 hrs by western blot analysis; format: cell-based; settings: dose 5-20 µM, time 13.5 hrs
[14] = tested on: THP-1; assay: Cytotoxicity against human THP-1 cells assessed as survival rate at < 40 uM by CCK8 assay; format: toxicity, cell-based; settings: thp-1, 40 µM
[15] = target: NACHT, LRR and PYD domains-containing protein 3 (Homo sapiens) (UniProt Q96P20); assay: Inhibition of NLRP3 inflammasome activation in LPS/ATP-induced human THP-1 cells assessed as suppression of P2X7 expression at 5 to 20 uM preincubated for 1 hrs followed by LPS for 12 hrs and ATP 0.5 hrs in presence of A438079 by Western blot analysis; format: cell-based; settings: dose 5-20 µM, time 13.5 hrs
[16] = tested on: J774.A1; assay: Antiinflammatory activity against LPS/ATP-stimulated […] cells assessed as inhibition of ROS release at 20 uM incubated for 1 hrs followed by LPS stimulation for 12 hrs and ATP addition for 0.5 hrs by DCFH-DA staining based confocal microscopy; format: functional, cell-based; settings: Mus musculus, time 13.5 hrs
[17] = target: NACHT, LRR and PYD domains-containing protein 3 (Homo sapiens) (UniProt Q96P20); assay: Inhibition of NLRP3 inflammasome activation in PMA-differentiated and LPS/NIG-stimulated human THP-1 cells assessed as decrease of ASC polymers at 20 uM incubated for 1 hrs followed by LPS stimulation for 12 hrs and NIG addition for 2 hrs by Western blot analysis; format: cell-based; settings: time 15.0 hrs
[18] = target: NACHT, LRR and PYD domains-containing protein 3 (Homo sapiens) (UniProt Q96P20); assay: Inhibition of NLRP3 inflammasome activation in PMA-differentiated and LPS/ATP-stimulated human THP-1 cells assessed as inhibition of IL-6 secretion at 20 uM incubated for 1 hrs followed by LPS stimulation for 12 hrs and ATP addition for 0.5 hrs by ELISA; format: cell-based; settings: time 13.5 hrs
[19] = tested on: THP-1; assay: Cytotoxicity against human THP-1 cells derived macrophage assessed as reduction in cell viability upto 40 uM incubated for 24 hrs by CCK-8 assay; format: toxicity, cell-based; settings: thp-1, 24 h

For `CC1(C)C(=O)C=C[C@]2(C)[C@H]3CC[C@@]4(C)[C@H](c5ccoc5)OC(=O)[C@H]5O[C@]54[C@]3(C)[C@H](O)C[C@@H]12` [DEACETYLGEDUNIN], the inhibition [1] was “Active”, the inhibition [2] was “Active” and the Activity [3] was “Active”. For the same compound, the inhibition [4] was “Active”, the inhibition [5] was “Active” and the inhibition [6] was “Active”. For the same compound, the inhibition [7] was “Active”, the Activity [8] was “Active” and the inhibition [9] was “Active”. The inhibition [10] was “Active”, the Activity [11] was “Active” and the inhibition [12] was “Dde”. For the same compound, the inhibition [13] was “Active”, the Activity [14] was “Non-Toxic” and the inhibition [15] was “Active”. The Activity [16] was “Active”, the inhibition [17] was “Active” and the inhibition [18] was “Active”. The Activity [19] was “Non-Toxic”.
